Patent EP1506767A1, “Use of a carbonylated amine for stimulating hairgrowth and/or for slowing down their loss” (L'OREAL, priority 2003, dated 2005)

How the values were obtained:
canaux calcium [1] = assay: Calcium flux inhibition (IC50Ca2+) on SK-N-SH nerve cells; format: cell-based; details: concentration inhibiting 50 % of Ca2+ release, read-out: IC50Ca2+ Sur cellules nerveuses SK-N-SH
From the text: Par ailleurs, le demandeur a trouvé que les amines de formule (I) et en particulier de formule (II) sont des inhibiteurs de canaux calcium (ou de flux calcique) comme […] ou […]. Or, les inhibiteurs de canaux sont connus comme actifs dans le traitement de la chute des cheveux et sur leur effet bénéfique sur la microcirculation (confère description ci-dessus). Pour qu'une substance soit reconnue comme un inhibiteur des canaux calcium, elle doit pouvoir diminuer la concentration intracellulaire en calcium ou diminuer la liaison du calcium aux protéines intracellulaires comme par exemple la calmoduline, tel que cela est notamment décrit par Galizzi, J. P. et al., J. Biol. Chem. 1987, 262 p 6947; par Y. Okamiya et al., Eur. J. Pharmacol. 1991, 205, […]. Wagner et al., J. Neurosci. 1988, 8, […]. Lee et al., Life Sci. 1984, 35, p 721; par Schoemaker H. et Lauger S. Eur. J. Pharmacol. 1985, 111, p 273 ou encore I. J. Reynolds et al., J. Pharmacol. Exp. Ther. 1986, 237, p 731. Selon le protocole indiqué dans ces documents, […]'inhibition de flux calcique des composés (3), (4), (6) et (7), en comparaison […] sont donnés dans le tableau ci-après.

canaux calcium [2] = assay: Calcium flux inhibition (IC50Ca2+) on HDFa skin fibroblast cells; format: cell-based; details: concentration inhibiting 50 % of Ca2+ release, read-out: IC50Ca2+ Sur cellules issues de fibroblastes de la peau HDFa
From the text: Par ailleurs, le demandeur a trouvé que les amines de formule (I) et en particulier de formule (II) sont des inhibiteurs de canaux calcium (ou de flux calcique) comme le vérapamil ou l'alvérine. Or, les inhibiteurs de canaux sont connus comme actifs dans le traitement de la chute des cheveux et sur leur effet bénéfique sur la microcirculation (confère description ci-dessus).
Pour qu'une substance soit reconnue comme un inhibiteur des canaux calcium, elle doit pouvoir diminuer la concentration intracellulaire en calcium ou diminuer la liaison du calcium aux protéines intracellulaires comme par exemple la calmoduline, tel que cela est notamment décrit par Galizzi, J. P. et al., J. Biol. Chem. 1987, 262 p 6947; par Y. Okamiya et al., Eur. J. Pharmacol. 1991, 205, p 49; par J. A. Wagner et al., J. Neurosci. 1988, 8, p 3354; par H. R. Lee et al., Life Sci. 1984, 35, p 721; par Schoemaker H. et Lauger S. Eur. J. Pharmacol. 1985, 111, p 273 ou encore I. J. Reynolds et al., J. Pharmacol. Exp. Ther. 1986, 237, p 731.
Selon le protocole indiqué dans ces documents, le demandeur a déterminé l'IC50Ca2+ d'inhibition de flux calcique des composés (3), (4), (6) et (7), en comparaison avec le vérapamil; les résultats sont donnés dans le tableau ci-après. IC50Ca2+ représente la concentration inhibitrice de 50 % de libération de Ca^2+.

[3] = test system: coculture nerfs/muscles (cellules musculaires striées humaines); assay: Inhibition of muscle fibre contractions in a nerve/muscle coculture model; format: cell-based, humaines; rat; details: 10, 50, 100 µM; 60 s incubation; three muscle fibres; triplicate
Description: La molécule de l'exemple 1 a été testée à différentes concentrations, à savoir 10, 50 et 100 µM, sur un modèle de coculture nerfs/muscles, qui permet de recréer un arc moteur en innervant des cellules musculaires striées humaines avec des explants de moelle épinière et de ganglions rachidiens d'embryons de rat.
Ce test est prédictif d'un effet inhibiteur des contractions des fibres musculaires.
Des cellules musculaires humaines, issues de prélèvements de muscles striés de donneurs sains, sont ensemencées dans des puits de 1,8 cm^2 de section (boîtes de culture de 24 puits). Après 10 jours de culture, ces cellules forment une monocouche et fusionnent. A ce stade, des explants de moelle épinière d'embryons de rat de 13 jours contenant les ganglions rachidiens sont déposés sur la culture.
La croissance des neurites est visible en dehors de l'explant de moelle épinière après un jour de culture. Les premières contractions des fibres musculaires sont observées après 5 à 6 jours de coculture et après 3 semaines, toutes les fibres musculaires au voisinage des explants se contractent.
Les cocultures sont utilisées après 21 jours, quand les fibres musculaires sont striées et possèdent des jonctions neuromusculaires différenciées matures. […]

Structure (SMILES)	IC50 (canaux calcium [1]) [µM]	IC50 (canaux calcium [2]) [µM]	contractions des fibres musculaires [3]
COC(=O)C1=C(C)NC(C)=C(C(=O)OC)C1c1ccccc1[N+](=O)[O-] [nifédipine, reference compound]	29		
CCN(CCCc1ccccc1)CCCc1ccccc1 [alvérine, reference compound]	30		
CCCCCC(=O)CCN(CC)CCc1ccc(OC)c(OC)c1 [compound 6]	32	22	
CCCCCC(=O)CCN(CCCc1ccccc1)CCC(=O)CCCCC [compound 3]	7	18	
COc1ccc([C@@H]2Sc3ccccc3N(CCN(C)C)C(=O)[C@@H]2OC(C)=O)cc1 [diltiazem, reference compound]	> 45		
CCCCCC(=O)CCN(CC)CCCc1ccccc1 [compound 4, 1-(N-éthyl, (3-phényl-)propylamino) octan-3-one]	18	30	bloque les contractions
CCCCCC(=O)CCN(CC)Cc1ccccc1 [compound 7]	17	18	
